Like-named read-outs stand apart in the source and are kept apart here.

One data set has as its target T1, fl-HDAC4 (wild-type) (Homo sapiens, UniProt P56524).
T1 construct: Full-length (fl) [A.A. 1-1082] recombinant human histone deacetylase 4 (rhHDAC4) protein; FLAG (N); GST (given as 'with or without'); made in house; host or cells: HEK293-T
The data set is described as follows: SPR binding analysis TasQ / fl-HDAC4. How it is done: Surface Plasmon Resonance (SPR) Binding Analysis. SPR analysis was performed on the Biacore 3000™ system using CM5 sensor chips, certified buffers (HBS-P—10 mM HEPES, 0.15 M NaCl, pH 7.4, containing 0.005% v/v Surfactant P; HBS-EP-HBS-P with 3 mM EDTA) and reagents for immobilization and surface regeneration from Biacore, GE Healthcare, Uppsala Sweden. Evaluation of sensorgrams was performed using the BIA-evaluation Software version 4.1 and GraphPad Prism 4. Buffer of protein reagents were changed to HBS-P on Zeba spin desalting columns (Thermo Scientific) prior to being used in SPR analysis (Isaacs 2013).
A. Binding of wild-type and mutant forms of HDAC4 to immobilized TasQ. TasQ (ABR-215050; mol wt 406.4) was dissolved as a 40 mM solution in water with 1.5 equivalents of NaOH. TasQ with an amino-linker [i.e. —(CH2)2O(CH2)2—NH2](ABR-225180) in amide nitrogen position was used for amine coupling on to a Biacore CM5 sensor chip. A 1 mg/mL solution of ABR-225180 in HBS-P buffer was prepared and immobilized on a CM5 chip by injection at a flow rate of 5 or 10 μL/min until a stable response level was reached. Interaction of various HDAC4 forms with immobilized TasQ was studied by injection over this surface in HBS-P buffer containing 10 or 20 μM ZnCl2. Bound HDAC4 was removed by a pulse of 3 mM EDTA in HBS-P or 0.5 to 6.25 mM NaOH in water. In a second series of experiments, the ability of TasQ in solution to displace this binding was studied by pre-incubation of HDAC4 with TasQ as competitor.
B. Binding of TasQ to immobilized HDAC4 and NCoR1. Different variants of HDAC4 (full-length wild-type and mutant forms and the truncated protein) and full-length NCoR1 were immobilized on a CM5 chip using random amine coupling. Briefly, proteins were dissolved in 10 mM sodium acetate buffer at pH 5.0 or 5.5 and immobilized to the aimed level using the standard protocol from GE Healthcare. Serially diluted TasQ in HBS-P buffer with 10 or 20 μM Zn was injected (for 2 or 3 min at a flow rate of 30 μl/min) either directly or after a 1st injection of 1 mM DTT to reduce cysteines in the zinc conformation site in HDAC4. Regeneration was made with a short pulse of HBS-EP.
To evaluate the conformational requirements for TasQ's binding to HDAC4, surface plasmon resonance (SPR) analysis was utilized. To maximize conformational flexibility, TasQ is immobilized onto the surface of a Biacore CM5 sensor chip via an amino-linker [i.e. —(CH2)2—O—(CH2)2—NH2] in its amide nitrogen position.
By comparison, Linomide even at >30 μM in solution binds only 10-15% of the immobilized fl-HDAC4 protein despite the presence of Zn^+2 (FIG. 14). […] The fact that the KD for binding of soluble TasQ to immobilized fl-HDAC4 is higher than the KD for binding of soluble fl-HDAC4 with immobilized TasQ is predictable. This is because the conformational dynamics of fl-HDAC4 protein immobilized on the chip are more restrictive due to the multiple random amine coupling than the conformational dynamics of TasQ immobilized via a single amino-linker.
To address this possibility, a competitive binding assay was developed based upon the ability of TasQ in solution to compete with immobilized TasQ on the SPR-chip for binding to fl-HDAC4.

Data set [1] concerns LvCaP-3 human prostate cancer PDXs. The data set is described as follows: In vivo growth of LvCaP-3 xenografts in castrate hosts. Particulars: daily oral 10 mg/kg. The text has this: Prostate Cancer Models. The source, history, and characteristics of the human prostate cancer cell lines and PDXs used, as well as cell culture conditions for their in vitro maintenance and the in vivo protocol for xenograft growth in triple immune-deficient NSG (i.e. NOD.Cg-PrkdcScidIl2rgtmlWji/Szj), adult (>8 week old) male mice obtained from the Sidney Kimmel Comprehensive Cancer Center (SKCCC) Animal Core Facility are described previously (Isaacs 2013; Brennen et al. JCI Insight. 2021, 6(8):e146827; Zhu et al. Oncogene 2020, 39(45): 6935-6949). […] In vitro growth curves were determined as described (Isaacs 2013). In vivo growth response to oral daily TasQ (10 mg/kg/d) of TRAMP-C2 mouse prostate cancers was evaluated in C57BL/6J syngeneic wild type vs. NOX-2 vs. iNOS null male mice obtained from Jackson Laboratory (Bar Harbor, ME). Growth response to oral daily TasQ (10 mg/kg/d) of TRAMP-C2 and B6CaP mouse prostate cancers was also evaluated in S100A9 null C57BL′6J male mice obtained from Dmitry Gabrilovich (Wistar Institute). […] In vitro growth curves were determined as described (Isaacs 2013). Growth response to daily oral TasQ vs. ESATA-20 (both at 10 mg/kg/d) of Myc-CaP-CR mouse prostate cancer was evaluated in syngeneic FVB/NJ castrate male mice from Jackson Laboratory. […]

For data set [2], the system named is AHR protein in LNCaP cells. Put plainly: AHR translocation and downregulation in LNCaP cells (immunoblot). The class given is cell-based, human. Particulars: TasQ 10 μM. How it is done:
Western Blot Analysis. Analysis and quantification of protein expression via immunoblot was performed as previously described (Brennen 2021). All assays were performed with total cell lysates from an equal number (i.e., 100,000) of cells loaded per lane for accurate comparisons across cell lines and conditions.

A further data set can be described thus: Water solubility. The format is physicochemical.

T1 sequence (P56524 whole entry): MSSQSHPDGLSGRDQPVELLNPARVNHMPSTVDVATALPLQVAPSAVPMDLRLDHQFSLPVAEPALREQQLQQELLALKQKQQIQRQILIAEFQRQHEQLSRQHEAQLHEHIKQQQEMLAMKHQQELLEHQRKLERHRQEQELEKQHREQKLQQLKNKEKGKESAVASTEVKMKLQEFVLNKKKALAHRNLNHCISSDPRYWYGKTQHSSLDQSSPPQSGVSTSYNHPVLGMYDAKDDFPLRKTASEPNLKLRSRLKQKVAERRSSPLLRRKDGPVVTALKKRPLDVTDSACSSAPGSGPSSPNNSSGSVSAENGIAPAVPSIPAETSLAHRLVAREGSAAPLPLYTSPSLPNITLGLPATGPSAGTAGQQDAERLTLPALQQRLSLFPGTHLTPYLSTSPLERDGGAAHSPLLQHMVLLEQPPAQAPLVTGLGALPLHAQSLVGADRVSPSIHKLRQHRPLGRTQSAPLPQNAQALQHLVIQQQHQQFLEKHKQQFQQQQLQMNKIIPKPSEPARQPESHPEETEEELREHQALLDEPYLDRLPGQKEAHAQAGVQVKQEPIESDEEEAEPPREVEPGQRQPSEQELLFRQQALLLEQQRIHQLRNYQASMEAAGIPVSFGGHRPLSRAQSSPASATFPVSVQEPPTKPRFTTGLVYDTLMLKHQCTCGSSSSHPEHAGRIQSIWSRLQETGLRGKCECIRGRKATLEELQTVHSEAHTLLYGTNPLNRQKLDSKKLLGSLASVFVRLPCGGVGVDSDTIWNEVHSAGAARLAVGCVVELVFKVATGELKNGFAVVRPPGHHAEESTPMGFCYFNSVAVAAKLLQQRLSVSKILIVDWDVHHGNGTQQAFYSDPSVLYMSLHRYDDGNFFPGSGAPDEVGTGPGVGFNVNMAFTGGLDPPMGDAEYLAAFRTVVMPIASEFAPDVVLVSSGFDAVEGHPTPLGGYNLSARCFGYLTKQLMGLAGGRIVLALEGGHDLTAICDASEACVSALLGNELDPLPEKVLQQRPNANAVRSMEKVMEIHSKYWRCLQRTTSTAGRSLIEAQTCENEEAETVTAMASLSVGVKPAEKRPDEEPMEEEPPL

On to `COc1cccc2c1c(O)c(C(=O)N(C)c1ccc(C(F)(F)F)cc1)c(=O)n2C` [TasQ, Tasquinimod], for which the IC50 (usually the concentration needed to halve the response being measured) on fl-HDAC4 (wild-type) (competitive SPR assay, read-out: IC50 of TasQ in solution to reduce binding of fl-wild-type HDAC4 to immobilized TasQ) is 1300 nM. In addition, the Kd (in general, the free concentration of one partner at which half of the binding sites on the other are occupied at equilibrium, for simple one-to-one binding) at fl-HDAC4 (wild-type) (compound in solution, immobilized fl-HDAC4, n=4, read-out: KD) is 4900 nM; on fl-HDAC4 (wild-type) (fl-HDAC4 in solution, immobilized amine-linked TasQ, Zn2+, read-out: KD calculated from the on- and off-rates) it was ~20 nM; on fl-HDAC4 (wild-type) (fl-HDAC4 in solution, immobilized amine-linked TasQ, Zn2+, read-out: KD from the steady state dose-response curve) it was ~130 nM. Further, the “inhibition of growth of LvCaP-3 xenografts at the end of study” value in data set [1] was “⅔”. Besides, in data set [2], the “time to downregulation of the AHR protein” value lay within 2 to 4 h.

Consider `COc1cccc2c1c(O)c(C(=O)N(c1ccc(C(F)(F)F)cc1)C1CCCCC1)c(=O)n2C` [ESATA-20], for which the “water solubility compared with TasQ” value in the data set “Water solubility” is on record as “less water soluble than TasQ”.

(Values after US20250059139A1, “COMPOUNDS FOR TREATMENT OF CANCER” (THE JOHNS HOPKINS UNIVERSITY, priority 2021, published 2025).)
